PubChem BioAssay (NCI)
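All cell lines were grown in 96-well plates and treated with compound for 48 hours. Definition used: TGI = concentration required for complete inhibition of growth.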

Columns and labels:
Assay in all cases: DTP human tumour cell line panel, 48 h
[1] = system: 786-0 renal
[2] = system: A549 NSCLC
[3] = system: ACHN renal
[4] = system: BT-549 breast
[5] = system: CAKI-1 renal
[6] = system: CCRF-CEM leukemia
[7] = system: COLO 205 colon
[8] = system: DU-145 prostate
[9] = system: HCC-2998 colon
[10] = system: HCT-116 colon
[11] = system: HCT-15 colon
[12] = system: HL-60(TB) leukemia
[13] = system: HOP-62 NSCLC
[14] = system: HOP-92 NSCLC
[15] = system: HS 578T breast
[16] = system: HT29 colon
[17] = system: IGROV1 ovarian
[18] = system: K-562 leukemia
[19] = system: KM12 colon
[20] = system: LOX IMVI melanoma
[21] = system: M14 melanoma
[22] = system: MALME-3M melanoma
[23] = system: MCF7 breast
[24] = system: MDA-MB-231 breast
[25] = system: MDA-MB-435
[26] = system: MDA-N
[27] = system: MOLT-4 leukemia
[28] = system: NCI-H23 lung
[29] = system: NCI-H522 lung
[30] = system: NCI/ADR-RES ovarian
[31] = system: OVCAR-4 ovarian
[32] = system: OVCAR-5 ovarian
[33] = system: OVCAR-8 ovarian
[34] = system: PC-3 prostate
[35] = system: RPMI-8226 leukemia
[36] = system: SF-268 CNS
[37] = system: SF-295 CNS
[38] = system: SF-539 CNS
[39] = system: SK-MEL-28 melanoma
[40] = system: SK-MEL-5 melanoma
[41] = system: SK-OV-3 ovarian
[42] = system: SN12C renal
[43] = system: SNB-19 CNS
[44] = system: SNB-75 CNS
[45] = system: SR leukemia
[46] = system: SW-620 colon
[47] = system: T-47D breast
[48] = system: TK-10 renal
[49] = system: U251 CNS
[50] = system: UACC-257 melanoma
[51] = system: UACC-62 melanoma
[52] = system: A498 renal
[53] = system: EKVX NSCLC
[54] = system: NCI-H226 lung
[55] = system: NCI-H460 lung
[56] = system: OVCAR-3 ovarian
[57] = system: RXF 393 renal
[58] = system: SK-MEL-2 melanoma
[59] = system: UO-31 renal

In the case of `N#CCC1COc2ccccc2O1` (stereo not given), the TGI [1] is reported as over 10 µM, the TGI [2] is reported as over 10 µM and the TGI [3] is reported as over 10 µM. It also gave a TGI [4] of over 10 µM, a TGI [5] of over 10 µM and a TGI [6] of over 10 µM. It also gave a TGI [7] of over 10 µM, a TGI [8] of over 10 µM and a TGI [9] of over 10 µM. It also gave a TGI [10] of over 10 µM, a TGI [11] of over 10 µM and a TGI [12] of over 10 µM. It also gave a TGI [13] of over 10 µM, a TGI [14] of over 10 µM and a TGI [15] of over 10 µM. The TGI [16] was over 10 µM, the TGI [17] was over 10 µM and the TGI [18] was over 10 µM. It also gave a TGI [19] of over 10 µM, a TGI [20] of over 10 µM and a TGI [21] of over 10 µM. It also gave a TGI [22] of over 10 µM, a TGI [23] of over 10 µM and a TGI [24] of over 10 µM. For the same compound, the TGI [25] was over 10 µM, the TGI [26] was over 10 µM and the TGI [27] was over 10 µM. It also gave a TGI [28] of over 10 µM, a TGI [29] of over 10 µM and a TGI [30] of over 10 µM. The TGI [31] was over 10 µM, the TGI [32] was over 10 µM and the TGI [33] was over 10 µM. It also gave a TGI [34] of over 10 µM, a TGI [35] of over 10 µM and a TGI [36] of over 10 µM. The TGI [37] was over 10 µM, the TGI [38] was over 10 µM and the TGI [39] was over 10 µM. For the same compound, the TGI [40] was over 10 µM, the TGI [41] was over 10 µM and the TGI [42] was over 10 µM. For the same compound, the TGI [43] was over 10 µM, the TGI [44] was over 10 µM and the TGI [45] was over 10 µM. For the same compound, the TGI [46] was over 10 µM, the TGI [47] was over 10 µM and the TGI [48] was over 10 µM. The TGI [49] was over 10 µM, the TGI [50] was over 10 µM and the TGI [51] was over 10 µM.

With `CSc1c(C(=O)Nc2ccccc2)c(N)nn1-c1ccccc1` the TGI [1] was over 100 µM, the TGI [52] was over 100 µM and the TGI [2] was over 100 µM. It also gave a TGI [4] of over 100 µM, a TGI [5] of over 100 µM and a TGI [6] of over 100 µM. The TGI [7] was over 100 µM, the TGI [8] was over 100 µM and the TGI [53] was over 100 µM. It also gave a TGI [9] of over 100 µM, a TGI [10] of over 100 µM and a TGI [11] of over 100 µM. For the same compound, the TGI [12] was over 100 µM, the TGI [15] was over 100 µM and the TGI [16] was over 100 µM. For the same compound, the TGI [18] was over 100 µM, the TGI [19] was over 100 µM and the TGI [20] was over 100 µM. The TGI [21] was over 100 µM, the TGI [22] was over 100 µM and the TGI [23] was over 100 µM. The TGI [24] was over 100 µM, the TGI [25] was over 100 µM and the TGI [26] was over 100 µM. For the same compound, the TGI [27] was over 100 µM, the TGI [54] was over 100 µM and the TGI [28] was over 100 µM. For the same compound, the TGI [55] was over 100 µM, the TGI [30] was over 100 µM and the TGI [56] was over 100 µM. For the same compound, the TGI [31] was over 100 µM, the TGI [32] was over 100 µM and the TGI [33] was over 100 µM. It also gave a TGI [34] of over 100 µM, a TGI [35] of over 100 µM and a TGI [57] of over 100 µM. The TGI [36] was over 100 µM, the TGI [38] was over 100 µM and the TGI [58] was over 100 µM. The TGI [39] was over 100 µM, the TGI [40] was over 100 µM and the TGI [41] was over 100 µM. The TGI [42] was over 100 µM, the TGI [43] was over 100 µM and the TGI [44] was over 100 µM. For the same compound, the TGI [45] was over 100 µM, the TGI [46] was over 100 µM and the TGI [47] was over 100 µM. The TGI [48] was over 100 µM, the TGI [49] was over 100 µM and the TGI [50] was over 100 µM. For the same compound, the TGI [51] was over 100 µM and the TGI [59] was over 100 µM.

For `CCN(CC)Cc1nc2sc3c(c2c(=O)n1-c1ccccc1)CCCC3`, the TGI [1] was 32.2 µM, the TGI [52] was 45.2 µM and the TGI [2] was 55 µM. The TGI [3] was 55.2 µM, the TGI [4] was 53.6 µM and the TGI [5] was 56.9 µM. For the same compound, the TGI [6] was over 100 µM, the TGI [7] was 43.6 µM and the TGI [8] was 47.8 µM. The TGI [53] was 79.9 µM, the TGI [9] was 33.6 µM and the TGI [10] was 39.4 µM. It also gave a TGI [11] of 51.7 µM, a TGI [12] of over 100 µM and a TGI [13] of 86.7 µM. For the same compound, the TGI [14] was 51.4 µM, the TGI [15] was 93.6 µM and the TGI [16] was 29.3 µM. The TGI [17] was 39 µM, the TGI [18] was over 100 µM and the TGI [19] was over 100 µM. The TGI [20] was 28.7 µM, the TGI [21] was 30.2 µM and the TGI [22] was 45.5 µM. For the same compound, the TGI [23] was 36 µM, the TGI [24] was 30.4 µM and the TGI [26] was 58 µM. For the same compound, the TGI [27] was 56.7 µM, the TGI [54] was 33 µM and the TGI [28] was 81.2 µM. It also gave a TGI [55] of 40.8 µM, a TGI [29] of 44.9 µM and a TGI [30] of 62.1 µM. The TGI [56] was 34.8 µM, the TGI [31] was 97.4 µM and the TGI [32] was 63.1 µM. For the same compound, the TGI [33] was 32.7 µM, the TGI [34] was 34 µM and the TGI [35] was 81.9 µM. The TGI [57] was 37.6 µM, the TGI [36] was 50.3 µM and the TGI [37] was 66.3 µM. It also gave a TGI [58] of 38.6 µM, a TGI [39] of over 100 µM and a TGI [40] of 31.7 µM. It also gave a TGI [41] of 83.3 µM, a TGI [42] of 37.8 µM and a TGI [43] of over 100 µM. For the same compound, the TGI [44] was 47.4 µM, the TGI [45] was over 100 µM and the TGI [46] was 37.3 µM. For the same compound, the TGI [47] was 44.7 µM, the TGI [48] was 30.9 µM and the TGI [49] was 31.3 µM. For the same compound, the TGI [50] was 47.5 µM, the TGI [51] was 30.4 µM and the TGI [59] was 23.3 µM.

With `c1ccc2c(-c3cnc(-c4c[nH]c5ccccc45)cn3)c[nH]c2c1` the TGI [1] was over 100 µM, the TGI [52] was over 100 µM and the TGI [2] was over 100 µM. It also gave a TGI [3] of over 100 µM, a TGI [4] of over 100 µM and a TGI [5] of over 100 µM. For the same compound, the TGI [7] was over 100 µM, the TGI [8] was over 100 µM and the TGI [53] was over 100 µM. It also gave a TGI [9] of over 100 µM, a TGI [10] of 94.2 µM and a TGI [11] of over 100 µM. The TGI [13] was over 100 µM, the TGI [14] was over 100 µM and the TGI [15] was over 100 µM. It also gave a TGI [17] of over 100 µM, a TGI [18] of over 100 µM and a TGI [19] of over 100 µM. The TGI [20] was 94.2 µM, the TGI [21] was over 100 µM and the TGI [22] was over 100 µM. It also gave a TGI [23] of over 100 µM, a TGI [24] of over 100 µM and a TGI [25] of 78.5 µM. It also gave a TGI [26] of 50.3 µM, a TGI [28] of over 100 µM and a TGI [55] of over 100 µM. The TGI [29] was 64.2 µM, the TGI [30] was over 100 µM and the TGI [56] was over 100 µM. The TGI [31] was over 100 µM, the TGI [32] was over 100 µM and the TGI [33] was over 100 µM. For the same compound, the TGI [34] was over 100 µM, the TGI [35] was over 100 µM and the TGI [57] was over 100 µM. For the same compound, the TGI [36] was over 100 µM, the TGI [37] was 50.4 µM and the TGI [38] was 73.7 µM. For the same compound, the TGI [58] was over 100 µM, the TGI [39] was over 100 µM and the TGI [40] was over 100 µM. The TGI [41] was over 100 µM, the TGI [42] was over 100 µM and the TGI [43] was over 100 µM. The TGI [44] was 94.4 µM, the TGI [45] was over 100 µM and the TGI [46] was 47.9 µM. The TGI [47] was over 100 µM, the TGI [48] was over 100 µM and the TGI [49] was over 100 µM. For the same compound, the TGI [50] was over 100 µM, the TGI [51] was over 100 µM and the TGI [59] was over 100 µM.
